Assay results: US8993527B2, “Methods, compositions, and formulations for preventing or reducing adverse effects in a patient” (Pericor Therapeutics, Inc., priority 2005, dated 2015)
Like-named read-outs stand apart in the source and are kept apart here.

Experiments:
[1] = tested on: patients undergoing CABG surgery
[2] = tested on: patients undergoing CABG surgery; assay type: in vivo
Method: All patients from all clinical trials were included: a total of 4043 patients undergoing CABG surgery, evaluable for efficacy, and randomized to receive either placebo (n=2031) or acadesine (0.1 mg-kg^−1-min^−1; n=2012) by intravenous infusion for 7 continuous hours and via the cardioplegia solution.
Individual patient data were collected prospectively using standardized forms and methods and double-data entry. A general parametric approach and analysis-by-patient meta-analysis were used, including both fixed effects and random effects models. Inclusion and exclusion criteria, general methodology, and outcome assessment techniques were similar for all trials.
Meta-analysis included all patients undergoing CABG surgery in the United States, Canada, and Europe who had received acadesine at a dose of 0.1 mg-kg^1min^1. No patients satisfying these criteria were excluded. All 5 studies were randomized, placebo controlled, double blinded, and performed with approval from the 81 participating McSPI institutions and with patient informed consent. Inclusion and exclusion criteria, general methods, and outcome assessment techniques were similar for all trials; with several exceptions (Table 1). […] For all patients, blinded study drug (acadesine or placebo) was administered intravenously, starting approximately 15 minutes before induction of anesthesia and continuing for a total of 7 hours to include the intraoperative (prebypass and postbypass) and immunediate postoperative (into the intensive care unit) periods.
Prior to surgery, investigators ascertained cardiac history and recorded cardiac catheterization information. The use of agents potentially affecting endogenous adenosine concentration (which could complicate the analysis of efficacy) was restricted, including dipyridamole, theophylline, adenosine, and pentoxifylline. All chronic cardiovascular medications, including nitrates, β-blockers, and calcium channel blockers, were continued until the time of surgery. During surgery, but prior to bypass, the usual monitors wore applied, anesthetic techniques were standardized, and hemodynamic variables (blood pressure, heart rate) were to be maintained within specific boundaries for trials 1013, 1016, and 1023; for trials […], guidelines for anesthetic use and hemodynamic control were recommended. For all studies, prophylactic use of cardiovascular agents having potential anti-ischemic properties (nitrates, calcium channel Mockers) was specifically excluded to avoid confounding data interpretation. During cardiopulmonary bypass, neither the surgical technique nor bypass procedures (including cardioplegia administration) were controlled for the phase 3 trials, and bypass typically was conducted using a membrane oxygenator and arterial filter with hemodilution and moderate systemic hypothermia. Following bypass, the use of inotropic and vasodilating agents (excluding the prophylactic use of anti-ischemic medications) and treatment of clinically detected ischemia were not controlled; all medications administered were recorded.
For all studies, the primary outcome, MI, and other secondary outcomes were ascertained and validated by IREF Coordinating Center investigators who were blinded to patient identity and group assignment. Secondary outcomes included cardiac death, stroke, life-threatening dysrhythmia, and severe heart failure (Table 1). For MI, repeated electrocardiograms (ECGs) were coded centrally by core investigators using Minnesota Code criteria. Creatine kinase-MB (CK-M13) concentrations were sampled approximately 18 times during the first 4 postoperative days and, for phase 3 studies, were analyzed centrally using an immunoenzymetric assay (Hybritech Tandem-E CK-MB II, SmithKline Beecham, Van Nuys, Calif.). The presence of infarction at autopsy was based on pathologic data from the respective institution and confirmed centrally by the Endpoint Committee.

[3] = tested on: pentylene tetrazol-induced seizures; assay: Suppression of pentylene tetrazol-induced seizures; assay type: in vivo, rat; conditions: 2000 mg/kg (total dose) intraperitoneal
[4] = target: T1, NBTI-specific adenosine transport site (UniProt O54698); assay: [3H]-NBTI binding assay; conditions: read-out: ED50 (50% displacement of bound [3H]-NBTI); 0.5 mg neuronal membrane protein, 0.5 nM [3H]-NBTI, 30 minutes
T1 sequence (O54698 1-457): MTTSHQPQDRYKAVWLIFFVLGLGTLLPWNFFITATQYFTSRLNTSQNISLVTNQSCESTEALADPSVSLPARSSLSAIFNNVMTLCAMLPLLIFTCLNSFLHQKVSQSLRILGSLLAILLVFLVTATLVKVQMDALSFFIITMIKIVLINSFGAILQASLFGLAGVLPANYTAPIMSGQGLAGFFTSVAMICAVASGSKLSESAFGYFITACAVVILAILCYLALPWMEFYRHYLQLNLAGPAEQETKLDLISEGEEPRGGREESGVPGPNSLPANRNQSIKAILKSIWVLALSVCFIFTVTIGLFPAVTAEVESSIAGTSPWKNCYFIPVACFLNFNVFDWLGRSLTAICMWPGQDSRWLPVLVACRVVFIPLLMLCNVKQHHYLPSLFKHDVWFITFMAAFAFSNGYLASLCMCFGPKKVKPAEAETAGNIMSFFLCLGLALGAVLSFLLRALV
Method: Increasing concentrations of the test compounds were incubated for 30 minutes with 0.5 mg neuronal membrane protein together with 0.5 nM [^3 H]-NBTI in a Tris buffer (pH 7.4) at room temperature. The assays were quenched and membranes collected by rapid filtration. Filters were then solubilized and radioactivity determined by scintillation counting.

[5] = plasma level 3.00–4.00 μg/ml, n = 44
[6] = plasma level 4.00–5.00 μg/ml, n = 61
[7] = death following myocardial infarction, acadesine vs placebo (n = 98)
[8] = patients with myocardial infarction, Acadesine (n = 71)
[9] = patients with myocardial infarction, Acadesine (n = 71), number of patients

With `NC(=O)c1ncn([C@@H]2O[C@H](CO)[C@@H](O)[C@H]2O)c1N` [1 (1-110), 5-amino-1-β-D-ribofuranosyl-imidazole-4-carboxamide] the “Cardiac Death, incidence” value ([1]; Low Dose, n = 214) was 5 (2.3%), the “Cerebrovascular Accident, incidence” value ([1]; Low Dose, n = 214) was 2 (0.9%) and the “Combined Clinical Outcomes, incidence” value ([1]; Low Dose, n = 214) was 23 (10.7%). For the same compound, the “Congestive Heart Failure, incidence” value ([1]; Low Dose, n = 214) was 6 (2.8%), the “Life-Threatening Dysrhythmia, incidence” value ([1]; Low Dose, n = 214) was 9 (4.2%) and the “decrease in incidence of MI” value ([1]; high dose vs placebo) was 68%. The “decrease in incidence of cerebrovascular accident” value ([1]; high dose vs placebo) was 88%, the “reduction in the incidence of combined outcomes” value ([1]; high dose vs placebo) was 61% and the “incidence of myocardial infarction by either ECG or CK-MB” value ([1]; high dose, placebo 24.1%) was 20.8%. For the same compound, the “Myocardial Infarction MI, incidence” value ([1]; plasma level 0.25–2.00 μg/ml, n = 83) was 2 (2.4%), the “Combined Clinical Outcome, incidence” value ([1]; plasma level 0.25–2.00 μg/ml, n = 89) was 9 (10.1%) and the “Myocardial Infarction MI, incidence” value ([1]; plasma level 2.00–3.00 μg/ml, n = 114) was 5 (4.4%). The “Combined Clinical Outcome, incidence” value ([1]; plasma level 2.00–3.00 μg/ml, n = 116) was 11 (9.5%), the “Combined Clinical Outcome, incidence” value [1, 5] was 3 (6.8%) and the “Myocardial Infarction MI, incidence” value [1, 5] was 1 (2.3%). For the same compound, the “Combined Clinical Outcome, incidence” value [1, 6] was 2 (3.3%), the “Myocardial Infarction MI, incidence” value [1, 6] was 0 and the “Myocardial Infarction MI, incidence” value ([1]; plasma level 5.00–6.00 μg/ml, n = 49) was 2 (4.1%). The “Combined Clinical Outcome, incidence” value ([1]; plasma level 5.00–6.00 μg/ml, n = 50) was 3 (6.0%), the “Myocardial Infarction MI, incidence” value ([1]; plasma level <0.25 μg/ml, n = 209) was 9 (4.3%) and the “Combined Clinical Outcome, incidence” value ([1]; plasma level <0.25 μg/ml, n = 211) was 29 (13.7%). The “Myocardial Infarction MI, incidence” value ([1]; plasma level >6.00 μg/ml, n = 44) was 1 (2.3%), the “Combined Clinical Outcome, incidence” value ([1]; plasma level >6.00 μg/ml, n = 46) was 4 (8.7%) and the “decrease of the incidence of perioperative myocardial infarction” value ([2]; 0.1 mg/kg/min for 7 hours vs placebo) was 27%. For the same compound, the “cardiac death following MI through postoperative day 4” value ([2]; acadesine group (1 death/71 MIs), placebo 13.3%) was 1.4%, the “incidence of CVA” value ([2]; acadesine group (32/2012), placebo 2.3%) was 1.6% and the “fewer patients with an adverse outcome” value ([2]; acadesine group vs placebo, combined outcomes) was 41. For the same compound, the incidence of infarction ([2]; acadesine group, placebo 4.9%) was 3.6%, the “cardiac deaths through postoperative day 4, number” value ([2]; acadesine group, placebo 26) was 13 and the “Cardiac death at 28 days, patients” value ([2]; acadesine group, placebo 34) was 20. The “patients with myocardial infarction, number” value ([2]; acadesine group, placebo 98) was 71, the “autopsy-defined MI” value ([2]; acadesine patients, placebo 16/19) was 2/11 and the “decrease of cardiac death following MI through postoperative day 4” value ([2]; acadesine vs placebo) was 89%. The “decrease of the incidence of cardiac death through postoperative day 4” value ([2]; acadesine vs placebo) was 50%, the “decrease of the incidence of combined outcome (MI, stroke, or cardiac death)” value ([2]; acadesine vs placebo) was 26% and the noncardiac death ([2]; acadesine vs placebo) was “no effect”. For the same compound, the “reduction of the use of ventricular-assistance devices for severe postoperative heart failure” value ([2]; acadesine vs placebo) was “approximately one third”, the post-MI deaths ([2]; acadesine-treated patients, placebo 21/98) was 4/71 and the “cardiac death in the first 4 days in patients without MI or not evaluable for MI” value ([2]; acadesine-treated, placebo 0.7%) was 0.6%. The “Cardiac death by postoperative day 4, Reduction” value [2, 7] was 89%, the “Cardiac death by postoperative day 28, Reduction” value [2, 7] was 79% and the “Death by postoperative day 4, Reduction” value [2, 7] was 79%. For the same compound, the “Death by postoperative day 28, Reduction” value [2, 7] was 74%, the “cardiac failure, immediately life-threatening or prolonging hospitalization” value ([2]; human, in vivo, 7 h) was 2.1% and the “incidence of serious adverse events” value ([2]; human, in vivo, 7 h) was 9.1%. For the same compound, the “use of an intraaortic balloon pump” value ([2]; in vivo) was 2.4%, the “Cardiac death by postoperative day 4, (%)” value [2, 8] was 1 (1) % and the “Cardiac death by postoperative day 28, (%)” value [2, 8] was 4%. For the same compound, the “Death by postoperative day 4, (%)” value [2, 8] was 3%, the “Death by postoperative day 28, (%)” value [2, 8] was 6% and the “Cardiac death by postoperative day 4, No.” value [2, 9] was 1 (1). The “Cardiac death by postoperative day 28, No.” value [2, 9] was 3, the “Death by postoperative day 4, No.” value [2, 9] was 2 and the “Death by postoperative day 28, No.” value [2, 9] was 4. For the same compound, the “reduction in post-MI death” value ([2]; secondary analysis, acadesine vs placebo) was 74%, the “effect size for MI” value ([2]; trial 1016 (n=414)) was 73% and the rate of stroke ([2]; trial 1016, placebo 4.2%) was 0.5%. For the same compound, the “combined adverse cardiovascular outcome (MI, CVA or cardiac death)” value ([2]; trial 1016, placebo […]) was 1.9%, the “infarction rate (Q wave and CK-MB or autopsy)” value ([2]; trial 1016, placebo […]) was 1.5% and the “effect size for MI” value ([2]; trial 1017 (n=821)) was 23%. The “effect size for MI” value ([2]; trial 1024 (n=2698)) was 22%, the latency to seizure [3] was “dramatic prolongation of latency to seizure” and the EC50 [4] was > 1000 µM.
